In PubChem BioAssay AID179 (DTP/NCI, 2004):
Where “and” joins values, the source holds several entries; their conditions need not be identical. Equal values may be shown once. Calls of active or inactive are those of the source.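 Rule for the calls: active = compounds giving half or more protection of infected cells from virus-caused growth loss, again on retest; inactive = the rest.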 Where a SMILES comes first, the peptide text is derived from it. The star is where a group is joined. Cbz = O=C(OCc1ccccc1)*; NHNH2 = NN*

Test system: CEM cells HIV-1 protection, formazan growth assay
Experiment: NCI AIDS Antiviral Assay
Details: for IC50: measured here: growth of uninfected CEM cells
Outline: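 Screen of anti-HIV-1 activity in human CEM cells using a formazan-based growth measurement at five drug concentrations. Hits with 50% or greater protection were repeated, and confirmation required reproducible complete protection.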

SMILES | EC50 [µM] | IC50 | outcome
C=C(Cl)c1c(OC)cccc1OCc1ccccc1 | > 200 | 97.7 µM | 
O=c1nc(NC2CCCCO2)ccn1CCO (stereo not given) | > 1050 | > 1050 µM | 
O=S1CCCCS1 (stereo not given) | > 912 | 17.4 µM | 
O=c1[nH]c2ccccc2c(O)c1/C=N/C(=S)NCc1ccccc1 | > 200 | > 200 µM | 
C[C@H](CS)C(=O)N1c2ccccc2C[C@H]1C(=O)O | > 200 | > 200 µM | 
CC(=O)C1(c2ccccc2)CCNCC1 |  |  | inactive
CCN1CCC(O)(/C=C/c2cccc(C)c2)C(C(=O)/C=C/c2cccc(C)c2)C1 (stereo not given) | > 200 | 3.55 µM | 
CCCCc1c2c(nc3c1CCCC3=O)C(=O)CCC2 | > 5.37 | > 5.37 µM | 
CCCCCC=C(c1cc(Cl)c(OC)c(C(=O)NO)c1)c1cc(Cl)c(OC)c(C(=O)NO)c1 | > 200 | 1.95 µM | 
O=C1C=C(c2c(O)ccc3ccccc23)c2cc(O)ccc2C1=O | > 112 | 6.61 µM | 
CC(C)NC(=O)OCCN=C1c2ccccc2C(Br)C(Br)c2ccccc21 (stereo not given) | > 200 | 0.575 µM | 
COC(=O)C1=C(C)N2CCSC2(C)C(C(=O)OC)C1c1cccc(Cl)c1 (stereo not given) | > 200 | 42.7 µM | 
COc1ccc(Nc2cc(N)nc(N)n2)c(=S)[nH]1 | > 676 | 57.5 µM | 
COC1/C=C/OC2(C)Oc3c(C)c(O)c4c(O)c(c(/C=N/N=C(\N)N[N+](=O)[O-])c(O)c4c3C2=O)NC(=O)C(C)=C/C=C/C(C)C(O)C(C)C(O)C(C)C(OC(C)=O)C1C (stereo not given) |  |  | inactive
COc1ccc(C2=NNC(=O)OC2c2ccccc2)cc1 (stereo not given) | > 63.1 | 7.24 µM | 
CC(=O)OCC(=O)OC[C@H](OCc1ccccc1)[C@@H]1[C@H](OC(C)=O)C(=O)N1Cc1ccccc1 | > 200 | 145 µM | 
CC1(C)N=C(N)N=C(N)N1c1cccc(/C=C(\C#N)c2ccccc2)c1 | > 200 | 4.79 µM | 
CS(=O)(=O)OCCNC[C@@H](O)[C@@H](O)CNCCOS(C)(=O)=O | > 692 | 1.38 µM | 
COC(=O)C1ON2C(C1C(=O)OC)C(C)(C)N(O)C2(C)C (stereo not given) | > 200 | > 200 µM | 
CC(C)CC(N)C(=O)NC(Cc1ccc(O)cc1)C(=O)NC(CCC(=O)O)C(=O)N1CCCC1C(=O)NC(CO)C(=O)NC(Cc1ccc(O)cc1)C(=O)NC(C)C(=O)N1CCCC1C(=O)NC(CC(N)=O)C(=O)NC(Cc1cnc[nH]1)C(=O)NC(Cc1ccccc1)C(=O)O (stereo not given) (H-LYEPSYAPNHF-OH; configuration not given here) |  |  | inactive
CC1=Nc2ccccc2NC(C)(C)C1 | > 955 | 56.2 µM and 37.2 µM and > 200 µM | 
Cc1ccccc1SC(/C=C/NNC1=NC(c2ccccc2)C(c2ccccc2)=NN1)c1ccccc1 (stereo not given) | > 20 | > 20 µM | 

SMILES | EC50 [µM] | IC50 | outcome
Cc1cc(NS(=O)(=O)c2ccc(Nc3c4ccccc4nc4ccccc34)cc2)no1 | > 200 | 2 µM | 
COC(=O)C1CCC(=O)N1C(c1ccc(OC)cc1)c1ccc2c(c1)OCO2 (stereo not given) | > 200 | 11.5 µM | 
COC(=O)CC(NC(=O)OCc1ccccc1)C(=O)NC(CC(=O)OC)C(=O)NC(CC(=O)OC)C(=O)NC(CC(=O)OC)C(=O)NC(CC(=O)OC)C(=O)NC(CC(=O)OC)C(=O)NN (stereo not given) (Cbz-D(OMe)D(OMe)D(OMe)D(OMe)D(OMe)D(OMe)-NHNH2; configuration not given here) | > 100 | > 100 µM | 
CC(=O)CC1(C)OC(N)=C(C#N)C1(C#N)C#N (stereo not given) | > 200 | 162 µM | 
O=C(O)/C=C\CCCCCCCCC(=O)O | > 794 | > 794 µM | 
COc1ccc(C(=O)c2ccc(OC)c(S(=O)(=O)n3ccnc3)c2)cc1S(=O)(=O)n1ccnc1 | > 35.5 | 32.4 µM | 
COc1cc(C(c2cc3c(cc2O)OCO3)N2CCCC2)cc(OC)c1OC (stereo not given) | > 200 | 7.76 µM | 
O=C(O)C1C(c2c3ccc(=O)c(O)c-3oc3c(O)c(O)ccc23)C2(Cl)C(Cl)=C(Cl)C1(Cl)C2(Cl)Cl (stereo not given) | > 151 | > 151 µM | 
CC(=O)/C(=C/n1ccc(=O)[nH]c1=S)C(=O)Nc1ccccc1 | > 200 | > 200 µM | 
O=C(CCCN1CCC2(CC1)C(=O)NCN2c1ccccc1)c1ccccc1 | > 200 | 34.7 µM | 
COc1cc2c3c(c1OC)C1(C=CC(=O)C=C1)CC3N(C(=O)OC(C)(C)C(Cl)(Cl)Cl)CC2 (stereo not given) |  |  | inactive
CCOC(=O)C(=O)/C(=C/N1CC(=O)NC1=S)C(=O)OCC | > 200 | > 200 µM | 
Nc1nc(Cl)c2[nH]c(Cl)nc2n1 | > 200 | 132 µM | 
COc1cc2c(c3[nH]cc(C(=O)O)c(=O)c13)NC(=O)CS2 | > 200 | > 200 µM | 
O=c1cc(-c2ccccc2)oc2cc(OCCCCCCCCCCOc3ccc4c(=O)cc(-c5ccccc5)oc4c3)ccc12 | > 1.7 | > 1.7 µM | 
O=C1[C@@H]2C3SC(c4ccccc43)[C@@H]2C(=O)N1c1ccccc1 |  |  | inactive
CN(C)c1ccc(CC2CCc3ccccc32)cc1 (stereo not given) | > 20.9 | > 20.9 µM | 
CC12NC(=O)NC(=O)N1CCS2 (stereo not given) |  |  | inactive
CC(=O)N1N=C(N)CC1=O | > 200 | > 200 µM | 
CCCCCC1C2C(=O)NC(=O)C1C(=O)NC2=O (stereo not given) | > 1000 | > 1000 µM | 
O=C1/C(=C/c2ccccc2)CN(C(=O)CCN2CCCC2)C/C1=C\c1ccccc1 | > 575 | 0.813 µM | 
